In patent US20070264229A1, “Peptides for Treatment of Autoimmune Disease” (priority 2004, published 2007):
Read-outs that look alike come from different tables or passages of the source.

Experiments:
[1] = tested on: spleen and lymph node cells of SJL/J mice; experiment: Cytokine measurement by ELISA in cultures from immunized SJL/J mice; format: cell-based, mouse; conditions: re-stimulated with cognate peptide 2 days, FIG. 4
Method: After ten days, single cell suspensions derived from lymph nodes and spleens were re-stimulated with the corresponding peptides in the presence of antigen presenting cells for two days. Culture supernatants were analyzed for amount of secretion of IL-2, IL-4, IL-10 and IFN-γ by ELISA.
Cytokine mAb directed against each of IL-2, IL-4, IL-10, and IFN-γ was coated into wells of 96-well plates at a concentration of 1 μg/ml overnight. Plates were washed and were treated with blocking solution (Kierkegaard and Perry, Gaithersburg, Md.), followed by incubation of each of the cytokine standards and the culture supernatants overnight at 4° C. After washing, plates were incubated with corresponding biotinylated anti-cytokine-detecting mAb (1 μg/ml) for 2 hrs. Plates were developed by addition of avidin/peroxidase and its substrate. The mAb pairs used were from the following clones: IL-2: JES6-A112, and JES6-5H4; IL-4: 11B11 and BVD6-24G2; IL-10: JES5-16E3 and SXC-1; and IFN-γ: R4-6A2 and XMG 1.2 (PharMingen).

[2] = tested on: PLP139-151-specific CD4+ T cells; experiment: Detection of PLP 139-151-reactive CD4+ T cells with I-As/PLP 139-151 tetramers; format: in vivo, mouse; conditions: SJL mice immunized with PLP139-151 alone, cultured 4 days, FIG. 7A
Method: After 10 days, lymphocytes were cultured with PLP 139-151. Four days later, after gating with anti-CD4, anti-CD25, and 7-amino-actinomycin D (7-AAD), live cells were incubated with I-A^s tetramers with PLP 139-151 (left) or with control peptide TMEV 70-86 (right) for 3 hrs. The I-A^s/tetramer-stained cells were determined in live CD4^+ T cell subset after eliminating dead cells (7-AAD positive).
SJL/J mice in groups of 3 animals were immunized with CFA alone or with PLP 139-151, with or without each of the peptides (75 μg each/mouse) in CFA. On day 10, all mice were sacrificed, and single cell suspensions were prepared and cultured at a density of 5×10^6 cells per ml in DMEM medium containing 10% fetal calf serum (FCS), 2 mM L-glutamine, 10 mM HEPES, 2 mM mercaptoethanol, penicillin (1000 U/ml) and streptomycin (1 μg/ml) (Biowhittaker, Walkersville, Md.). The cultures from each of the above groups were re-stimulated with PLP 139-151 with or without peptides (25 μg per ml). The mice treated with CFA only were used as negative control to validate immunizations; the PLP 139-151-immunized mice were used as positive controls to which the effect of peptides on PLP 139-151-specific CD4^+ T cell responses was compared.
After 4 days of culturing, cell suspensions were subjected to Ficoll-Hypaque density gradient centrifugation and were washed twice using PBS. […]

[3] = tested on: spleen and lymph node cells of SJL/J mice; conditions: copolymer, Illés 2004 / Stern 2004 PNAS; cited from earlier work
relapsing-remitting MS = conditions: relapsing-remitting forms of MS, cited from earlier work
[4] = tested on: EAE in HLA-DR2 and MBP85-99-specific TCR double tg mice; conditions: previous study, Illés 2004 PNAS 101:11749; cited from earlier work
HLA-DR2 (DRA/DRB1*1501) = biological target: T1, HLA-DR2 (DRA/DRB1*1501) (Homo sapiens, UniProt P01903+P01911); experiment: Competitive binding assay for HLA-DR2: inhibition of biotinylated MBP 85-99 binding
T1 construct: isolate soluble HLA-DR2 molecules which had been expressed in Drosophila S2 cells; made in house; host or cells: Drosophila S2 cells
Method: The reaction mixtures were transferred to plates coated with LB3.1 Ab specific to HLA DR2 molecules. Following addition of streptavidin-conjugated alkaline phosphatase, absorbance was measured at 450 nm by using a microtiter plate reader. Percent inhibition was calculated as described in the Materials and Methods. […] These studies were performed as described ([…]. et al. 2002. J Clin Invest 109:1635). […] Antigen presentation assay was performed as described previously [[…]. et al. 2001 Hum Immunol 62:753].

[5] = tested on: MBP85-99-specific transgenic (hVβ2+CD4+) and endogenous (hVβ2−CD4+) T cells; experiment: Cross-reactivity: proliferation of sorted transgenic and endogenous CD4+ T cells from humanized mice; format: cell-based, mouse; conditions: 10 μg/ml MBP85-99 or 100 μg/ml peptide, FIG. 3A
Method: To sort human TCR transgenic T cells specific to MBP 85-99, splenocytes from humanized mice were incubated with anti-CD4-APC (clone GK1.5, obtained from PharMingen, San Diego, Calif.) and anti-human Vβ2-PE (Immunotech, Marseille, France) at room temperature for 20 min. After washing twice, tg and endogenous or non-tg CD4 T cells (hVβ2^−CD4 cells) were sorted using a FACS Vantage SE apparatus (Becton Dickinson, San Diego, Calif.). The purity of fractionated hVβ2^+CD4^+ and hVβ2^−CD4^+ T cells was determined to be 98-99%.
SJL/J mice were immunized with PLP 139-151 or with each of the peptides (100 μg per mouse) emulsified in complete Freund's adjuvant (CFA; Difco Laboratories, Detroit, Mich.). Ten days later, single cell suspensions were prepared from spleens and lymph nodes, and were stimulated and re-stimulated with corresponding peptides at a concentration of 10 μg/ml in the presence of APC. After two rounds of stimulation, viable lymphocytes were separated by Ficoll-Hypaque density gradient centrifugation and were tested for specificity at a dose range of 0 to 50 μg/ml. NASE 101-120 peptide, which also binds I-A^s was used as a negative control. Lymphocytes were cultured in 96-well plates at a density of 5×10^5 cells per ml for 48 hrs, and were pulsed with ^3[H]-thymidine, 1 μCi per well. After sixteen hours of culture, plates were harvested and a Wallac scintillation counter (model 1250) was used to analyze the proliferative response determined by amount of ^3[H]-thymidine incorporation CPM. To determine the proliferative response of each of tg T cells expressing HLA-DR2 and human MBP 85-99-specific TCR, and non-tg T cells, the cells fractionated by flow cytometry were seeded in complete medium at 4×10^5 cells/well in 96-well U-bottom microtiter plates. Irradiated splenocytes of humanized mice were used as APC.
Therefore, MBP85-99-specific transgenic (hVβ2^+CD4^+) and endogenous (non-transgenic, hVβ2^−CD4^+) T cells were sorted by flow cytometry from spleen cells of humanized double transgenic mice.

[6] = tested on: PLP139-151 specific cell line; experiment: Cross-reactivity with PLP139-151 specific cell line; format: cell-based, mouse; conditions: FIG. 3B
Method: The proliferative responses were measured as CPM after pulsing with ^3[H] thymidine.

PLP139-151: one of the most immunodominant and encephalitogenic epitopes of PLP in SJL/J mice (CHCLGKWLGHPDK; UniProt P60202 139-151, looked up, fragment)
IFN-γ production [1]: produced in significant amounts
IL-2 production [1]: produced in significant amounts
Secretion of IL-4 [1]: comparable in all of the cultures
expansion of PLP tetramer reactive cells [2]: 1.5%

poly(F,Y,A,K)n [FYAK]
induction of immunosuppressive cytokines IL-4 and IL-10 [3]: most effective

poly[Y, E, A, K]n [Cop1]
reduction of relapse rate (relapsing-remitting MS): about 30%
reduction of relapse rate (relapsing-remitting MS; listed as Copolymer 1): 30%
mean maximal score [4]: 3.5
% inhibition (HLA-DR2 (DRA/DRB1*1501); Binding of biotinylated MBP (0.5 μM) by peptide competitor (1 μM)): 8%
inhibition of binding of biotinylated MBP 85-99 to HLA-DR2 (in words) (HLA-DR2 (DRA/DRB1*1501); recombinant HLA-DR2, FIG. 1A and Table 1): less efficiently than peptides J1, J2, J3 and J5
proliferation of MBP85-99-specific transgenic or endogenous CD4+ cells [5]: did not cross-react
response of PLP139-151 specific cell line (cross reactivity) [6]: did not cross-react
mean maximum score (EAE in SJL/J mice; at around day 22, co-immunized with PLP139-151, FIG. 5B): 2.5
severity of EAE (in words) (EAE in SJL/J mice; co-immunized with PLP139-151, FIG. 5B): moderately suppressed
